In one data set the test system is dogs. Conditions: dog, in vivo. The procedure:
However, plasma drug levels were not measured in these studies. […] The maximum plasma AUC0-8 hr values from the 6 month rat and 9 month dog toxicity studies (range: 42-127 ng·h/mL) was lower than the maximum plasma AUC0-8 hr values in cirrhotic patients (range: 19-306 ng·h/mL).

A further data set relates to patients with HE. Format: in vivo, human. The text has this:
Total number of hospitalizations, duration of hospitalizations, HE endpoints, and cost of therapy were compared between the 2 treatment regimens.

This is an account of results in US9629828B2, “Methods of treating traveler's diarrhea and hepatic encephalopathy” (priority 2008, dated 2017).

Regarding `CO[C@H]1/C=C/O[C@@]2(C)Oc3c(C)c(O)c4c(O)c(c5c(nc6cc(C)ccn65)c4c3C2=O)NC(=O)/C(C)=C\C=C\[C@H](C)[C@H](O)[C@@H](C)[C@@H](O)[C@@H](C)[C@H](OC(C)=O)[C@@H]1C` [rifaximin, (2S,16Z,18E,20S,21S,22R,23R,24R,25 S,26S,27S,28E)-5,6,21,23,25-pentahydroxy-27-methoxy-2,4,11,16,20,22,24,26-octamethyl-2,7-(epoxypentadeca-[1,11,13]trienimino)benzofuro[4,5-e]pyrido[1,2-á]-benzimidazole-1,15(2H)-dione,25-acetate], the toxic effects entry in the data set on dogs is listed as “negligible toxic effects”. Also, the “patients with Conn scores of 3 or 4” value in the data set with patients with HE (end of treatment period) turned out to be 6%. In addition, in the data set with patients with HE (human, in vivo), the days hospitalized amounted to 2.5 days; the “hospitalizations due to HE, cost, HE endpoints vs lactulose” value was “dramatically reduced”; the “patients with asterixis at end of treatment period” value came to 63%. This compound came in with a hospitalizations in the data set on patients with HE (rifaximin 400 mg 3 times/day, lactulose 30 mL twice daily) of 0.5.
